Assay results reported in publication PMC9795544, “Identifying Novel Inhibitors for Hepatic Organic Anion Transporting Polypeptides by Machine Learning-Based Virtual Screening” (Journal of Chemical Information and Modeling, 2022).
Values joined by “and” are separate entries in the source; they are usually repeats but may differ in a detail not shown here. Equal values may be shown once. Read-outs that look alike come from different tables or passages of the source.

Tests used:
Assay type in all cases: cell-based
OATP1B1 = molecular target: T1, OATP1B1 (Homo sapiens, UniProt Q9Y6L6); experiment: Pyranine transport inhibition in A431 cells overexpressing OATP1B1
T1 construct: expressed in transfected cells; host or cells: A431 cells
T1 sequence (Q9Y6L6 1-691): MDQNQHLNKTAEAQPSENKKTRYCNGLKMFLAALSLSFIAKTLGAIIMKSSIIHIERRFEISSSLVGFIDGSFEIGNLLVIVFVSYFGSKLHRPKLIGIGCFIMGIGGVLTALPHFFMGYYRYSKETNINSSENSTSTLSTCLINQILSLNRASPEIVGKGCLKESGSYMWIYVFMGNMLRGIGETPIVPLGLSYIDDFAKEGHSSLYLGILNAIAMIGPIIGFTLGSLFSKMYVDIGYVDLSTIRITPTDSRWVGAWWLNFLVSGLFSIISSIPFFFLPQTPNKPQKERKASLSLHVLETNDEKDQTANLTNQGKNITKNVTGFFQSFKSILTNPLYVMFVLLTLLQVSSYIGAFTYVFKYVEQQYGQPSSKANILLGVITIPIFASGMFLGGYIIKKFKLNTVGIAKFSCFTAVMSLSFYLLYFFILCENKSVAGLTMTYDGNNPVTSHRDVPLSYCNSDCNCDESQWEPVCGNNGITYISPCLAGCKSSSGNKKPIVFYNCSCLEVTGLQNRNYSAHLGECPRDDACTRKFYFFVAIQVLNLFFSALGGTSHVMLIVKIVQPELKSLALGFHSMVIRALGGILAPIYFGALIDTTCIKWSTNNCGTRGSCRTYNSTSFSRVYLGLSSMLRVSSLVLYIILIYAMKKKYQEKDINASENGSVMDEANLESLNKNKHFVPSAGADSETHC
Description: (§1) A431 cells overexpressing OATP1B1, OATP1B3, or OATP2B1 or their mock transfected controls were generated previously[30] and maintained in Dulbecco’s modified Eagle medium (DMEM, Gibco, Thermofisher Scientific, Waltham, MA, US) supplemented with 10% fetal bovine serum, 2 mM L-glutamine, 100 units/mL penicillin, and 100 μg/mL streptomycin. Expression and function of OATPs in the cell lines were checked regularly.
(§2) Interaction with OATP1B1, OATP1B3, or OATP2B1 was tested in an indirect transport assay using pyranine (8-hydroxypyrene-1,3,6-trisulfonic acid trisodium salt, H1529, Sigma, Merck, Budapest, Hungary) as the test substrate[31],[32] A431 cells overexpressing OATP1B1, OATP1B3, or OATP2B1 or their mock transfected controls were seeded on 96-well plates in a density of 8 × 10^4 cells per well in 200 μL of cell culture medium 1 day prior to the transport measurements. […] The transport reaction was started by the addition of 50 μL of uptake buffer containing pyranine in a final concentration of 10 μM (OATP1B1) or 20 μM (OATP1B3 and OATP2B1), and the cells were further incubated at 37 °C for 15 min (OATP1B1 and OATP2B1) or 30 min (OATP1B3). The reaction was stopped by removing the supernatant. After repeated washing with ice-cold PBS, fluorescence was determined in an Enspire plate reader (PerkinElmer, Waltham, MA) with excitation/emission wavelengths of 460/510 nm. OATP-dependent transport was calculated by extracting fluorescence measured in mock transfected cells and normalized to the fluorescence signal obtained in the absence of the tested compounds (100%). Experiments were repeated in at least three biological replicates.

OATP2B1 = molecular target: T2, OATP2B1 (Homo sapiens, UniProt O94956); experiment: Pyranine transport inhibition in A431 cells overexpressing OATP2B1
T2 construct: expressed in transfected cells; host or cells: A431 cells
T2 sequence (O94956 1-709): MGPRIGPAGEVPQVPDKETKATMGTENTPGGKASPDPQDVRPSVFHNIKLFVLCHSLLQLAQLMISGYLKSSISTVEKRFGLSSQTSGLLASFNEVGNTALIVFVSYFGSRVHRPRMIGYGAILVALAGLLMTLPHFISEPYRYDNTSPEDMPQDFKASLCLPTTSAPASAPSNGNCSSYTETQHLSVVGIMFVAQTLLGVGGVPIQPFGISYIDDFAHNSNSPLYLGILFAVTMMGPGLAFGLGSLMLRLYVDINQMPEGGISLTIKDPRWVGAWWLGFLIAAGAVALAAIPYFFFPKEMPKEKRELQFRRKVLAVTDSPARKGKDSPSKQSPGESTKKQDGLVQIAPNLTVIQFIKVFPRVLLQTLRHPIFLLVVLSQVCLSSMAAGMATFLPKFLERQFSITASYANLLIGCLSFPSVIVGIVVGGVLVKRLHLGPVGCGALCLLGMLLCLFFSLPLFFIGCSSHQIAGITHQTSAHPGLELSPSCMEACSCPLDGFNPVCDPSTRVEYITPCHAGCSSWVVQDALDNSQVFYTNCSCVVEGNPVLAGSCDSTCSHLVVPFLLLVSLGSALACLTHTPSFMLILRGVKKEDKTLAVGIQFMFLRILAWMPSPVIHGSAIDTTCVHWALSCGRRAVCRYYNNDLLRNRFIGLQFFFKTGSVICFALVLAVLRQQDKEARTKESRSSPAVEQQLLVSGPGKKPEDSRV
Description: as §1, §2

OATP1B3 = molecular target: T3, OATP1B3 (Homo sapiens, UniProt Q9NPD5); experiment: Pyranine transport inhibition in A431 cells overexpressing OATP1B3
T3 construct: expressed in transfected cells; host or cells: A431 cells
T3 sequence (Q9NPD5 1-702): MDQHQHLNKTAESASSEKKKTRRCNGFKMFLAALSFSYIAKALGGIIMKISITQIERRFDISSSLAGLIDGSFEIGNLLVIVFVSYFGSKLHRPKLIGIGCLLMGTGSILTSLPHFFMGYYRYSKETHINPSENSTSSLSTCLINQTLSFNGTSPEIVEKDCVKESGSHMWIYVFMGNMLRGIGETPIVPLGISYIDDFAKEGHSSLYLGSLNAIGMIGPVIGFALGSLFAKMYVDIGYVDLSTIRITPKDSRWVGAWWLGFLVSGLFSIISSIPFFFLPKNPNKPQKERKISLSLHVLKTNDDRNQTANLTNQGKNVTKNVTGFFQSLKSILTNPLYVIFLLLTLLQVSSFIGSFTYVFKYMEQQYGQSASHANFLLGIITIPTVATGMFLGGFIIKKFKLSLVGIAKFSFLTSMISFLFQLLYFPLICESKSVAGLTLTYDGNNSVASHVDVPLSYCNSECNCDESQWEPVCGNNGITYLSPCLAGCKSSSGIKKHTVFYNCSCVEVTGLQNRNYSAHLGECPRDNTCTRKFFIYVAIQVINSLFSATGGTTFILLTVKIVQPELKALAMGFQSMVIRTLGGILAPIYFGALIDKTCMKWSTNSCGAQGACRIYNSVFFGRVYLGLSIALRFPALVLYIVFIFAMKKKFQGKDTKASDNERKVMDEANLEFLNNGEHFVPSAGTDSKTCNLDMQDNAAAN
Description: as §1, §2

[1] = initial three-point screen (1, 10, 100 μM), category by concentration needed for 50% inhibition, pyranine 10 μM, 15 min, pH 5.5, read-out: IC50 (μM) OATP1B1
[2] = initial three-point screen (1, 10, 100 μM), category by concentration needed for 50% inhibition, pyranine 20 μM, 15 min, pH 5.5, read-out: IC50 (μM) OATP2B1
[3] = initial three-point screen (1, 10, 100 μM), category by concentration needed for 50% inhibition, pyranine 20 μM, 30 min, pH 5.5, read-out: IC50 (μM) OATP1B3
[4] = initial three-point screen (1, 10, 100 μM), category by concentration needed for 50% inhibition, pyranine 10 μM, 15 min, pH 5.5
[5] = initial three-point screen (1, 10, 100 μM), category by concentration needed for 50% inhibition, pyranine 20 μM, 30 min, pH 5.5
[6] = IC50 (μM) OATP2B1, initial three-point screen (1, 10, 100 μM), category by concentration needed for 50% inhibition, pyranine 20 μM, 15 min, pH 5.5
[7] = IC50 (μM) OATP1B3, initial three-point screen (1, 10, 100 μM), category by concentration needed for 50% inhibition, pyranine 20 μM, 30 min, pH 5.5

Compound	IC50 (OATP1B1; [1]) [µM]	IC50 (OATP2B1; [2]) [µM]	IC50 (OATP1B3; [3]) [µM]	other results
Cc1occc1-c1nnc(SCC(=O)c2ccc3c(c2)NC(=O)CO3)n1Cc1ccccc1 [A3, Cc1occc1c2nnc(SCC(=O)c3ccc4OCC(=O)Nc4c3)n2Cc5ccccc5]	1 to 10	1 to 10	> 10	–
Fc1ccc(C2CC(c3cccs3)=NN2c2nc(-c3ccccc3)c3cc(Cl)ccc3n2)cc1 (stereo not drawn) [A5, Fc1ccc(cc1)C2CC(=NN2c3nc(c4ccccc4)c5cc(Cl)ccc5n3)c6cccs6]	–	> 10	–	IC50 (μM) OATP1B1 (OATP1B1; [4]): no effect; IC50 (μM) OATP1B3 (OATP1B3; [5]): no effect
CC(C)(C)c1ncc(NC(=O)c2ccccc2-c2ncc(-c3ccccc3)o2)cn1 [A7, CC(C)(C)c1ncc(NC(=O)c2ccccc2c3oc(cn3)c4ccccc4)cn1]	–	1 to 10	–	IC50 (μM) OATP1B1 (OATP1B1; [4]): no effect; IC50 (μM) OATP1B3 (OATP1B3; [5]): Activated
Cc1ccc(NC(=O)C(Sc2nnc3n2CCCCC3)c2ccccc2)cc1Cl (stereo not drawn) [B2, Cc1ccc(NC(=O)C(Sc2nnc3CCCCCn23)c4ccccc4)cc1Cl]	–	–	–	IC50 (μM) OATP1B1 (OATP1B1; [4]): no effect; IC50 (OATP2B1; [6]): > 10 µM; IC50 (OATP1B3; [7]): > 10 µM
O=C(Cc1ccccc1[N+](=O)[O-])NCC1CC2c3ccccc3C1c1ccccc12 (stereo not drawn) [B4, [O-][N+](=O)c1ccccc1CC(=O)NCC2CC3c4ccccc4C2c5ccccc35]	–	–	–	IC50 (OATP1B1; full dose-response curve, eight concentrations, Hill1 fit, read-out: IC50 (μM) OATP1B1): ~10 µM; IC50 at 15 min (OATP1B1; human, pH 5.5): > 10 µM; IC50 (OATP2B1; [6]): 1 to 10 µM; IC50 (OATP2B1; full dose-response curve, eight concentrations, Hill1 fit, read-out: IC50 (μM) OATP2B1): 2.4 µM and 2.37 µM; IC50 (OATP1B3; [7]): 1 to 10 µM; IC50 (OATP1B3; full dose-response curve, eight concentrations, Hill1 fit, read-out: IC50 (μM) OATP1B3): ~10 µM
O=C(NCc1ccccn1)c1ccc2c(c1)S(=O)(=O)c1ccccc1C2=O [B5, O=C(NCc1ccccn1)c2ccc3C(=O)c4ccccc4S(=O)(=O)c3c2]	–	–	–	IC50 (OATP1B1): > 10 µM; IC50 (OATP2B1; [6]): 1 to 10 µM; IC50 (μM) OATP1B3 (OATP1B3; [5]): Activated
O=C(CSc1nc2cc(C(F)(F)F)ccc2n1Cc1ccccc1)c1ccc[nH]1 [B6, FC(F)(F)c1ccc2c(c1)nc(SCC(=O)c3ccc[nH]3)n2Cc4ccccc4]	> 10	> 10	> 10	–
Cc1cc(C)n2nc(SCc3ccccc3C(=O)NCCc3ccc4c(c3)OCCO4)nc2n1 [C2, Cc1cc(C)n2nc(SCc3ccccc3C(=O)NCCc4ccc5OCCOc5c4)nc2n1]	1 to 10	1 to 10	–	–
CC(OC(=O)c1cc(Cl)c2c(c1)OCCCO2)C(=O)c1ccc2c(c1)NC(=O)CO2 (stereo not drawn) [D4, CC(OC(=O)c1cc(Cl)c2OCCCOc2c1)C(=O)c3ccc4OCC(=O)Nc4c3]	–	1 to 10	–	–
CC1CCN(c2nnc(SCC(=O)NCC3COc4ccccc4O3)n2C2CC2)CC1 (stereo not drawn) [E4, CC1CCN(CC1)c2nnc(SCC(=O)NCC3COc4ccccc4O3)n2C5CC5]	–	1 to 10	> 10	–
O=C(Nc1ccccc1)c1ccccc1OCC(=O)N1CCN(C(=O)c2ccco2)CC1 [F2, O=C(COc1ccccc1C(=O)Nc2ccccc2)N3CCN(CC3)C(=O)c4occc4]	–	1 to 10	> 10	–
O=C(CCc1ncc(-c2c(F)cccc2F)o1)N1CCN(S(=O)(=O)c2ccccc2F)CC1 [G3, Fc1cccc(F)c1c2oc(CCC(=O)N3CCN(CC3)S(=O)(=O)c4ccccc4F)nc2]	–	1 to 10	> 10	–
CC(OC(=O)C1CCN(S(=O)(=O)c2ccc3c(c2)OCCO3)CC1)C(=O)Nc1cccc(C#N)c1 (stereo not drawn) [H3, CC(OC(=O)C1CCN(CC1)S(=O)(=O)c2ccc3OCCOc3c2)C(=O)Nc4cccc(c4)C#N]	1 to 10	1 to 10	–	–

Now from value to compound, other results behind:

IC50 (OATP1B1; [1]) [µM]	IC50 (OATP2B1; [2]) [µM]	IC50 (OATP1B3; [3]) [µM]	Compound	other results
1 to 10	1 to 10	1 to 10	N#Cc1c(NC(=O)COC(=O)CN2C(=O)NC3(CCc4ccccc43)C2=O)sc2c1CCCCC2 (stereo not drawn) [A2, O=C(COC(=O)CN1C(=O)NC2(CCc3ccccc23)C1=O)Nc4sc5CCCCCc5c4C#N]	–
–	> 10	–	Fc1ccccc1-c1cc(-c2ccccc2)c2c3c(sc2n1)CCCC3 [A4, Fc1ccccc1c2cc(c3ccccc3)c4c5CCCCc5sc4n2]	IC50 (μM) OATP1B1 (OATP1B1; [4]): no effect; IC50 (μM) OATP1B3 (OATP1B3; [5]): no effect
–	> 10	> 10	O=C(CN1C(=O)NC(Cc2c[nH]c3ccccc23)C1=O)Nc1ccc(OCc2ccccc2)cc1 (stereo not drawn) [A6, O=C(CN1C(=O)NC(Cc2c[nH]c3ccccc23)C1=O)Nc4ccc(OCc5ccccc5)cc4]	IC50 (μM) OATP1B1 (OATP1B1; [4]): no effect
> 10	1 to 10	> 10	O=C(CC12CC3CC(CC(C3)C1)C2)NCC(=O)N1CCN(S(=O)(=O)c2ccccc2F)CC1 [B3, Fc1ccccc1S(=O)(=O)N2CCN(CC2)C(=O)CNC(=O)CC34CC5CC(CC(C5)C3)C4]	–
> 10	–	> 10	O=C(OCC(=O)N(C1CCCCC1)C1CCCCC1)c1nn(-c2ccccc2)c(=O)c2ccccc12 [D5, O=C(COC(=O)C1=NN(C(=O)c2ccccc12)c3ccccc3)N(C4CCCCC4)C5CCCCC5]	–
> 10	1 to 10	–	O=C(CN1C(=O)NC2(CCCc3ccccc32)C1=O)Nc1nnc(C23CC4CC(CC(C4)C2)C3)s1 (stereo not drawn) [D6, O=C(CN1C(=O)NC2(CCCc3ccccc23)C1=O)Nc4nnc(s4)C56CC7CC(CC(C7)C5)C6]	–
